These results are taken from US8613914B2, “Peptidomimetic sulfamide compounds and antiviral uses thereof” (Novartis AG, priority 2009, dated 2013).

HCV NS3-4A serine protease (full-length NS3-4A protein), sequence (P26664 1027-1657): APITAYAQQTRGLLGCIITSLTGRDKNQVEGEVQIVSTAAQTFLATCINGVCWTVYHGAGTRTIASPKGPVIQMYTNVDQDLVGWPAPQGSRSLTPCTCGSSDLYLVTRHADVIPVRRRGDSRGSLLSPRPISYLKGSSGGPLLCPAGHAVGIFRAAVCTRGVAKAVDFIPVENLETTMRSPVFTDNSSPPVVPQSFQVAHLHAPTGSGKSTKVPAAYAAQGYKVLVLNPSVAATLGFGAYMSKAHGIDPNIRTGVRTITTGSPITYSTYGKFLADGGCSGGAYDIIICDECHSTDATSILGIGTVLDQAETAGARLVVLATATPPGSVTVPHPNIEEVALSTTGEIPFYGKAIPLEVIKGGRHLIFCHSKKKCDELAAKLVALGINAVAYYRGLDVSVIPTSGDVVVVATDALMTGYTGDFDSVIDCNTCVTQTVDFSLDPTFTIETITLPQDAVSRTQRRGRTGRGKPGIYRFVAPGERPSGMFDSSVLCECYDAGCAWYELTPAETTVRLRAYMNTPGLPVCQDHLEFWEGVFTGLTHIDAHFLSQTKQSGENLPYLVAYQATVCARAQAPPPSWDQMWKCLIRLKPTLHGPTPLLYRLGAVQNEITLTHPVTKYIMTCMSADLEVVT
HCV NS3-4A serine protease (full-length NS3-4A protein), sequence (P26664 1658-1711 partner): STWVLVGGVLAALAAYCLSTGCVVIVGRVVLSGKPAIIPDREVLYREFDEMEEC

The test deals with HCV NS3-4A serine protease (full-length NS3-4A protein) (Hepatitis C virus genotype 1a (isolate 1) (HCV), UniProt P26664). Kind of test: HCV NS3-4A protease assay. The class given is biochemical, HCV genotype 1a. The conditions noted are these: strain HCV-1, fluorogenic peptide substrate, read-out: Protease assay Ex. 12 IC50. As for the experimental part:
The inhibitory activity of certain compounds of Table A against HCV NS3-4A serine protease is determined in a homogenous assay using the full-length NS3-4A protein (genotype 1a, strain HCV-1) and a commercially available internally-quenched fluorogenic peptide substrate as described by Taliani, M., et al. 1996 Anal. Biochem. 240:60-67, which is incorporated by reference in its entirety.
One may read the IC50 as the concentration at which inhibition is half-maximal. With `C=C[C@@H]1C[C@]1(NC(=O)[C@@H]1C[C@@]2(CN1C(=O)[C@@H](NC(=O)[C@@H](NC(=O)[C@@H]1CCCCN1CC)C1CCCCC1)C(C)(C)C)C(C)(C)C21CCC1)C(=O)NS(=O)(=O)N(C)CC` [Compound 94, (5R,8S)-7-[(2S)-2-{[(2S)-2-cyclohexyl-2-({[(2S)-1-ethylpiperidin-2-yl]carbonyl}amino)acetyl]amino}-3,3-dimethylbutanoyl]-N-[(1R,2S)-1-({[ethyl(methyl)amino]sulfonyl}carbamoyl)-2-vinylcyclopropyl]-10,10-dimethyl-7-azadispiro[3.0.4.1]decane-8-carboxamide], the IC50 came out at 1.5 nM.

`C=C[C@@H]1C[C@]1(NC(=O)[C@@H]1C[C@@]2(CN1C(=O)[C@@H](NC(=O)[C@@H](NC(=O)[C@@H]1CCCN1CC)C1CCCCC1)C1(C)CCOCC1)C(C)(C)C21CCC1)C(=O)NS(=O)(=O)N(CC)CC` [Compound 154, (5R,8S)-7-[(2S)-2-{[(2S)-2-cyclohexyl-2-({[(2S)-1-ethylpyrrolidin-2-yl]carbonyl}amino)acetyl]amino}-2-(4-methyltetrahydro-2H-pyran-4-yl)acetyl]-N-[(1R,2S)-1-{[(diethylamino)sulfonyl]carbamoyl}-2-vinylcyclopropyl]-10,10-dimethyl-7-azadispiro[3.0.4.1]decane-8-carboxamide]: the IC50 is 2.8 nM. With `C=C[C@@H]1C[C@]1(NC(=O)[C@@H]1C[C@@]2(CN1C(=O)[C@@H](NC(=O)[C@@H](NC(=O)c1cnccn1)C1CCCCC1)C(C)(C)C)C(C)(C)C21CCC1)C(=O)NS(=O)(=O)NC(C)(C)C` [Compound 166, (5R,8S)-N-[(1R,2S)-1-{[(tert-butylamino)sulfonyl]carbamoyl}-2-vinylcyclopropyl]-7-[(2S)-2-({(2S)-2-cyclohexyl-2-[(pyrazin-2-ylcarbonyl)amino]acetyl}amino)-3,3-dimethylbutanoyl]-10,10-dimethyl-7-azadispiro[3.0.4.1]decane-8-carboxamide], the IC50 turned out to be 10 nM. Under `C=C[C@@H]1C[C@]1(NC(=O)[C@@H]1C[C@@]2(CN1C(=O)[C@@H](NC(=O)[C@@H](NC(=O)Cc1ccncc1)C1CCCCC1)C(C)(C)C)C(C)(C)C21CCC1)C(=O)NS(=O)(=O)N1CCCC1` [Compound 175, (5R,8S)-7-[(2S)-2-({cyclohexyl[(pyridin-4-ylacetyl)amino]acetyl}amino)-3,3-dimethylbutanoyl]-10,10-dimethyl-N-{(1R,2S)-1-[(pyrrolidin-1-ylsulfonyl)carbamoyl]-2-vinylcyclopropyl}-7-azadispiro[3.0.4.1]decane-8-carboxamide] stands 10 nM; under `C=C[C@@H]1C[C@]1(NC(=O)[C@@H]1C[C@@]2(CN1C(=O)[C@@H](NC(=O)[C@@H](NC(=O)[C@@H]1CC(F)(F)CN1C(C)C)C1CCCCC1)C(C)(C)C)C(C)(C)C21CCC1)C(=O)NS(=O)(=O)N1CCCC1` [Compound 89, (5R,8S)-7-[(2S)-2-{[(2S)-2-cyclohexyl-2-({[(2S)-4,4-difluoro-1-isopropylpyrrolidin-2-yl]carbonyl}amino)acetyl]amino}-3,3-dimethylbutanoyl]-10,10-dimethyl-N-{(1R,2S)-1-[(pyrrolidin-1-ylsulfonyl)carbamoyl]-2-vinylcyclopropyl}-7-azadispiro[3.0.4.1]decane-8-carboxamide], 30 nM. For the compound `CC[C@@H]1C[C@]1(NC(=O)[C@@H]1C[C@@]2(CN1C(=O)[C@@H](NC(=O)[C@@H](NC(=O)[C@@H]1CCCN1CC)C1CCCCC1)C(C)(C)C)C(C)(C)C21CCC1)C(=O)NS(=O)(=O)N1CCCC1` [Compound 99, (5R,8S)-7-[(2S)-2-{[(2S)-2-cyclohexyl-2-({[(2S)-1-ethylpyrrolidin-2-yl]carbonyl}amino)acetyl]amino}-3,3-dimethylbutanoyl]-N-{(1R,2R)-2-ethyl-1-[(pyrrolidin-1-ylsulfonyl)carbamoyl]cyclopropyl}-10,10-dimethyl-7-azadispiro[3.0.4.1]decane-8-carboxamide], the IC50 came to 20 nM. The value for `C=C[C@@H]1C[C@]1(NC(=O)[C@@H]1C[C@@]2(CN1C(=O)[C@@H](NC(=O)[C@@H](NC(=O)c1cccnc1N(C)C)C1CCCCC1)C(C)(C)C)C(C)(C)C21CCC1)C(=O)NS(=O)(=O)N1CCCC1` [Compound 70, (5R,8S)-7-[(2S)-2-{[(2S)-2-cyclohexyl-2-({[2-(dimethylamino)pyridin-3-yl]carbonyl}amino)acetyl]amino}-3,3-dimethylbutanoyl]-10,10-dimethyl-N-{(1R,2S)-1-[(pyrrolidin-1-ylsulfonyl)carbamoyl]-2-vinylcyclopropyl}-7-azadispiro[3.0.4.1]decane-8-carboxamide] was 35 nM. As for `C=C[C@@H]1C[C@]1(NC(=O)[C@@H]1C[C@@]2(CN1C(=O)[C@@H](NC(=O)[C@@H](NC(=O)[C@@H]1CCCCN1C(C)C)C1CCCCC1)C(C)(C)C)C(C)(C)C21CCC1)C(=O)NS(=O)(=O)N(C)CC1CC1` [Compound 50, (5R,8S)-7-[(2S)-2-{[(2S)-2-cyclohexyl-2-({[(2S)-1-isopropylpiperidin-2-yl]carbonyl}amino)acetyl]amino}-3,3-dimethylbutanoyl]-N-[(1R,2S)-1-({[(cyclopropylmethyl)(methyl)amino]sulfonyl}carbamoyl)-2-vinylcyclopropyl]-10,10-dimethyl-7-azadispiro[3.0.4.1]decane-8-carboxamide], the IC50 is 3.8 nM.

`C=C[C@@H]1C[C@]1(NC(=O)[C@@H]1C[C@@]2(CN1C(=O)[C@@H](NC(=O)[C@@H](NC(=O)[C@@H]1CCCCN1C(C)C)C1CCCCC1)C(C)(C)C)C(C)(C)C21CCC1)C(=O)NS(=O)(=O)N1CC[C@H](F)C1` [Compound 46, (5R,8S)-7-[(2S)-2-{[(2S)-2-cyclohexyl-2-({[(2S)-1-isopropylpiperidin-2-yl]carbonyl}amino)acetyl]amino}-3,3-dimethylbutanoyl]-N-[(1R,2S)-1-({[(3S)-3-fluoropyrrolidin-1-yl]sulfonyl}carbamoyl)-2-vinylcyclopropyl]-10,10-dimethyl-7-azadispiro[3.0.4.1]decane-8-carboxamide]: the IC50 was 2 nM. Under `C=C[C@@H]1C[C@]1(NC(=O)[C@@H]1C[C@@]2(CN1C(=O)[C@@H](NC(=O)[C@@H](NC(=O)c1[nH]c(C)c(C)c1C(C)=O)C(C)(C)C)C(C)(C)C)C(C)(C)C21CCC1)C(=O)NS(=O)(=O)N1CCCC1` [Compound 161, (5R,8S)-7-[(2S)-2-{[(2S)-2-{[(3-acetyl-4,5-dimethyl-1H-pyrrol-2-yl)carbonyl]amino}-3,3-dimethylbutanoyl]amino}-3,3-dimethylbutanoyl]-10,10-dimethyl-N-{(1R,2S)-1-[(pyrrolidin-1-ylsulfonyl)carbamoyl]-2-vinylcyclopropyl}-7-azadispiro[3.0.4.1]decane-8-carboxamide] stands 65 nM; under `C=C[C@@H]1C[C@]1(NC(=O)[C@@H]1C[C@@]2(CN1C(=O)[C@@H](NC(=O)[C@@H](NC(=O)[C@@H]1CCCCN1C(C)C)C1CCCCC1)C1(C)CCOCC1)C(C)(C)C21CCC1)C(=O)NS(=O)(=O)N1CCCC1` [Compound 124, (5R,8S)-7-[(2S)-2-{[(2S)-2-cyclohexyl-2-({[(2S)-1-isopropylpiperidin-2-yl]carbonyl}amino)acetyl]amino}-2-(4-methyltetrahydro-2H-pyran-4-yl)acetyl]-10,10-dimethyl-N-{(1R,2S)-1-[(pyrrolidin-1-ylsulfonyl)carbamoyl]-2-vinylcyclopropyl}-7-azadispiro[3.0.4.1]decane-8-carboxamide], 1.5 nM.
